Assay results taken from PubChem BioAssay (NCI).
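Abbreviation: GI50, concentration required for 50% inhibition of growth. TGI: concentration producing complete growth inhibition.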

Legend:
Assay in all cases: NCI anticancer screen, dose series, 384-well format
NCI/ADR-RES ovarian = tested on: NCI/ADR-RES ovarian
HCT-15 colon = tested on: HCT-15 colon
MDA-MB-435 melanoma = tested on: MDA-MB-435 melanoma
A498 renal = tested on: A498 renal
PC-3 prostate = tested on: PC-3 prostate
KM12 colon = tested on: KM12 colon
T-47D breast = tested on: T-47D breast
SW-620 colon = tested on: SW-620 colon
COLO 205 colon = tested on: COLO 205 colon
RXF 393 renal = tested on: RXF 393 renal
NCI-H522 lung = tested on: NCI-H522 lung
MALME-3M melanoma = tested on: MALME-3M melanoma
SN12C renal = tested on: SN12C renal
UO-31 renal = tested on: UO-31 renal
HOP-62 NSCLC = tested on: HOP-62 NSCLC
UACC-62 melanoma = tested on: UACC-62 melanoma
ACHN renal = tested on: ACHN renal
M14 melanoma = tested on: M14 melanoma
SK-OV-3 ovarian = tested on: SK-OV-3 ovarian
DU-145 prostate = tested on: DU-145 prostate
BT-549 breast = tested on: BT-549 breast
786-0 renal = tested on: 786-0 renal
UACC-257 melanoma = tested on: UACC-257 melanoma
HCT-116 colon = tested on: HCT-116 colon
U251 glioblastoma = tested on: U251 glioblastoma
SK-MEL-5 melanoma = tested on: SK-MEL-5 melanoma
SK-MEL-28 melanoma = tested on: SK-MEL-28 melanoma
CAKI-1 renal = tested on: CAKI-1 renal
LOX IMVI melanoma = tested on: LOX IMVI melanoma

Nc1cc(C(F)(F)F)c(-c2nc(N3CCOCC3)nc(N3CCOCC3)n2)cn1
GI50 (NCI/ADR-RES ovarian): 1.92 µM
TGI (NCI/ADR-RES ovarian): 17.3 µM
GI50 (HCT-15 colon): 0.497 µM
TGI (HCT-15 colon): > 100 µM
GI50 (MDA-MB-435 melanoma): 1.6 µM
TGI (MDA-MB-435 melanoma): 9.73 µM
GI50 (A498 renal): 0.32 µM
TGI (A498 renal): 2.26 µM
GI50 (PC-3 prostate): 0.291 µM
TGI (PC-3 prostate): 4.27 µM
GI50 (KM12 colon): 1.27 µM
TGI (KM12 colon): 14.6 µM
GI50 (T-47D breast): 0.107 µM
TGI (T-47D breast): 0.583 µM
GI50 (SW-620 colon): 2.6 µM
TGI (SW-620 colon): > 100 µM
GI50 (COLO 205 colon): 0.544 µM
TGI (COLO 205 colon): 9.66 µM
GI50 (RXF 393 renal): 1.15 µM
TGI (RXF 393 renal): 4.96 µM
GI50 (NCI-H522 lung): 0.36 µM
TGI (NCI-H522 lung): 10.2 µM
GI50 (MALME-3M melanoma): 0.174 µM
TGI (MALME-3M melanoma): 1.03 µM
GI50 (SN12C renal): 0.195 µM
TGI (SN12C renal): 2.3 µM
GI50 (UO-31 renal): 0.426 µM
TGI (UO-31 renal): 19.2 µM
GI50 (HOP-62 NSCLC): 1.31 µM
TGI (HOP-62 NSCLC): 14.1 µM
GI50 (UACC-62 melanoma): 0.52 µM
TGI (UACC-62 melanoma): 3.79 µM
GI50 (ACHN renal): 0.57 µM
TGI (ACHN renal): 8.66 µM
GI50 (M14 melanoma): 0.616 µM
TGI (M14 melanoma): 12.5 µM
GI50 (SK-OV-3 ovarian): 0.332 µM
TGI (SK-OV-3 ovarian): 2.04 µM
GI50 (DU-145 prostate): 0.847 µM
TGI (DU-145 prostate): 21.3 µM
GI50 (BT-549 breast): 0.678 µM
TGI (BT-549 breast): 4.42 µM
GI50 (786-0 renal): 1.32 µM
TGI (786-0 renal): 12.1 µM
GI50 (UACC-257 melanoma): 1.7 µM
TGI (UACC-257 melanoma): 20.8 µM
GI50 (HCT-116 colon): 0.833 µM
TGI (HCT-116 colon): 22.5 µM
GI50 (U251 glioblastoma): 3.23 µM
TGI (U251 glioblastoma): 95.5 µM
GI50 (SK-MEL-5 melanoma): 0.503 µM
TGI (SK-MEL-5 melanoma): 2.81 µM
GI50 (SK-MEL-28 melanoma): 0.461 µM
TGI (SK-MEL-28 melanoma): 6.54 µM
GI50 (CAKI-1 renal): 0.292 µM
TGI (CAKI-1 renal): 2.95 µM
GI50 (LOX IMVI melanoma): 1.57 µM
